Data on 21 molecules can be found in PubChem BioAssay (NCI).

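A five-concentration, 48-hour dose response in 96-well plates underlies each endpoint, interpolated linearly between surrounding concentrations. GI50 is the concentration that inhibits growth by half. At the TGI there is no net growth.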

Common to all, as to assay: NCI anticancer screen, dose series, 48 h
Test [1] has as its system HL-60(TB) leukemia.
Test [2] deals with HCT-116 colon.
Test [3] has as its system HCT-15 colon.
Test [4] deals with A549 NSCLC.
Test [5] deals with COLO 205 colon.
In test [6] the test system is DLD-1 colon.
Test [7] deals with MDA-MB-231 breast.
The test system of test [8] is PC-3 prostate.
Test [9] has as its system NCI/ADR-RES ovarian.
Test [10] has as its system DMS 114 small cell lung.

As for `NC(=O)C(=O)C1C(=O)N(c2ccccc2)N=C1N` (stereo not given), the TGI in test [1], in [2], in [3], in [4], in test [5] and in [6] was above 100 µM each time.
With `Cn1c2c(c3ccccc3c1=O)C(=O)c1ccccc1-2`, the TGI in test [1], in test [7], in test [2], in [3], in test [4] and in test [8] was above 100 µM each time. Also, the TGI in [5] and in test [9] was above 100 µM in each case.
In the case of `Cc1c(NC(=O)Nc2c(Cl)cccc2Cl)c(=O)n(-c2ccccc2)n1C`, the TGI in test [1], in [7], in test [2], in test [3], in [4] and in test [8] was above 100 µM throughout. In addition, the TGI in test [5] and in test [9] was above 100 µM in each case.
For the molecule `Cc1ccnc2c(NC(C)CCCN)cc(O)c(O)c12` (stereo not given), the GI50 in test [1] is 2.12 µM; in test [7], 16 µM; in test [2] it was 13.8 µM; in [3], 27 µM; in test [4] it was 20.7 µM; in test [8] it was 17.1 µM. Also, the GI50 in test [5] is 5.15 µM; in [9] it was 16.3 µM. The TGI is 5.33 µM in [1]; 74 µM in test [7]; above 100 µM in test [2]; above 100 µM in [3]; 75 µM in [4]; 53.8 µM in test [8]. In addition, the TGI in test [5] was 23.9 µM; in test [9], above 100 µM.
With `COc1c(B(O)O)cccc1-c1nc2ccc3[nH]ncc3c2c2c1CCCC2`, the GI50 in [1] was 0.658 µM; in test [7] it was 0.0201 µM; in [2], 0.473 µM; in test [3] it was 2.88 µM; in test [4], 2.55 µM; in test [8], 2.41 µM. The values for the GI50 in test [5] and in test [9] were 2.2 µM and 2.25 µM, respectively. The TGI in test [1] was 4.87 µM; in [7], 25.1 µM; in [2], above 96.7 µM; in test [3] it was 14.2 µM; in [4], above 34.9 µM; in test [8] it was 40.6 µM. In addition, the TGI amounted to 6.32 µM in [5] and 15.2 µM in [9].
For the molecule `c1cc(C2CCCCC2)ccc1-c1cnc2nonc2n1`, the GI50 was 0.318 µM in test [1]; 1.33 µM in [7]; 0.468 µM in test [2]; 0.438 µM in test [3]; 2.74 µM in test [4]; 0.789 µM in test [8]. For the same molecule, the GI50 is 1.99 µM in [5] and 0.466 µM in test [9]. Besides, the TGI in [1] was 1.52 µM; in [7] it was 4.01 µM; in test [2], 1.93 µM; in [3] it was 2.26 µM; in [4], 12.2 µM; in test [8], 2.56 µM. For the same molecule, the figures for the TGI in test [5] and in test [9] were 6.39 µM and 2.72 µM, respectively.
Regarding `Cc1nc2sc(C(=O)Nc3ccccc3)c(N)c2cc1C(O)c1ccccc1` (stereo not given), the GI50 in test [1] was 0.234 µM; in [7] it was 0.411 µM; in test [2], 0.255 µM; in test [3] it was 0.17 µM; in test [4] it was 0.421 µM; in [8], 0.427 µM. In addition, the GI50 in [5] was 0.376 µM; in test [9] it was 0.314 µM. Moreover, the TGI in test [1] was 0.657 µM; in test [7], above 64.6 µM; in test [2] it was 12.8 µM; in test [3], above 100 µM; in test [4], above 100 µM; in test [8], above 71 µM. Further, the TGI was found to be 4.99 µM in [5] and 28.8 µM in test [9].
Turning to `CCOC(=O)C1=C(O)C(=O)c2ccoc2C1=O`, the TGI in test [1], in [2], in [3], in test [4], in test [5] and in [10] was above 100 µM in each case.
Consider `O=C1C(Cl)=C(Nc2cc(Cl)ccc2O)C(=O)N1Cc1ccccc1`, for which the GI50 is 25.6 µM in [1]; 17.5 µM in test [7]; 19.4 µM in [2]; 17 µM in test [3]; 17 µM in test [4]; 16.3 µM in test [8]. For the same molecule, the GI50 in test [5] was 18.3 µM; in [9] it was 18.9 µM. Besides, the TGI is 67.1 µM in test [1]; 33.2 µM in test [7]; 35.6 µM in [2]; 32.6 µM in test [3]; 36.7 µM in test [4]; 32.6 µM in [8]. Besides, the figures for the TGI in test [5] and in test [9] were 44.3 µM and 37.4 µM, respectively.
As to `CCCCSc1nc(N)c2cn[nH]c2n1`, the GI50 in test [1] was 23.6 µM; in test [7], 15.5 µM; in [2], 14.1 µM; in test [3], 32.9 µM; in test [4] it was 27.6 µM; in test [8], 17.9 µM. For the same molecule, the GI50 in [5] is 19.8 µM; in test [9] it was 16.3 µM. Besides, the TGI is above 100 µM in test [1]; 35.2 µM in test [7]; 34.8 µM in [2]; above 100 µM in test [3]; above 73.6 µM in test [4]; 41.8 µM in [8]. Besides, the TGI amounted to 48.8 µM in test [5] and 37.4 µM in test [9].
Take `COc1cc2c(NC3CCN(C(C)C)CC3)nc(C3CCCCC3)nc2cc1OCCCN1CCCC1`: the GI50 was 3.03 µM in [1]; 2.61 µM in test [7]; 3.08 µM in [2]; 9.82 µM in test [3]; 3.38 µM in [4]; 7.09 µM in [8]. Also, the GI50 in test [5] was 1.66 µM; in test [9], 24.9 µM. Moreover, the TGI stood at 10.9 µM in [1]; 9.44 µM in [7]; 14.1 µM in test [2]; 23.9 µM in [3]; 13.3 µM in test [4]; 22.4 µM in [8]. In addition, the TGI in [5] is 3.1 µM; in test [9], above 78.8 µM.
Turning to `C[C@H]1COCCN1c1nc(-c2cnc(N)cc2C(F)F)nc(N2CCOCC2)n1`, the GI50 was 0.171 µM in test [1]; 0.177 µM in test [7]; 0.233 µM in [2]; 0.183 µM in test [3]; 0.199 µM in test [4]; 0.0985 µM in [8]. For the same molecule, the GI50 in test [5] was 0.179 µM; in [9], 0.253 µM. The TGI is 97.8 µM in test [1]; 48.5 µM in test [7]; above 100 µM in test [2]; above 100 µM in test [3]; above 100 µM in [4]; above 100 µM in [8]. In addition, the TGI in [5] was 19.8 µM; in [9] it was above 21.7 µM.
On to `C=CC(=O)Nc1ccccc1CC(c1c[nH]c2ccccc12)c1c[nH]c2ccccc12`, for which the TGI in test [3] was 38.7 µM; in test [4], 56.7 µM; in test [5] it was 30.9 µM; in [10], 30.1 µM.
On to `CCN(CC)/[N+]([O-])=N/OCOC`, for which the TGI in test [1], in test [7], in [2], in [3], in [4] and in test [8] was above 100 µM each time. The TGI in [5] and in test [9] was above 100 µM each time.
Regarding `CC(C)(O)CCc1cccc(C(=O)c2cnn(-c3ccc(F)cc3)c2N)c1`, the GI50 in test [1], in [7], in [2], in [3], in test [4] and in test [8] was above 25 µM each time. In addition, the GI50 in [5] was above 25 µM; in test [9] it was above 21.9 µM. In addition, the TGI in test [1], in [7], in test [2], in test [3], in test [4] and in [8] was above 25 µM in each case. In addition, the TGI in test [5] and in [9] was above 25 µM throughout.
On to `C[C@@H](CS[As](C)C)C(=O)N1CCC[C@H]1C(=O)O`, for which the GI50 is 0.0994 µM in test [1]; 0.226 µM in test [7]; 0.167 µM in test [2]; 0.0888 µM in test [3]; 1.58 µM in test [4]; 0.284 µM in test [8]. Further, the GI50 in test [5] was 0.156 µM; in test [9], 0.224 µM. Moreover, the TGI in test [7] was 1.35 µM; in test [2] it was above 100 µM; in [3], 1.28 µM; in test [4], above 100 µM; in test [8], 1.25 µM; in [9], 0.581 µM.
For `C[C@@]1(C(=O)O)CCC[C@]2(C)C1CC[C@]13C[C@@](O)(CO)[C@](O)(CC[C@]12O)C3` (stereo not given in full), the GI50 in test [1], in test [7], in test [2], in test [3], in test [4] and in [8] was above 100 µM in each case. Further, the GI50 in test [5] and in [9] was above 100 µM each time. Further, the TGI in [1], in test [7], in [2], in [3], in test [4] and in test [8] was above 100 µM in each case. Also, the TGI in [5] and in test [9] was above 100 µM throughout.
With `CN(C)CCNC(=O)c1cccc2c1Oc1cccc([N+](=O)[O-])c1O2`, the TGI in test [1] is 51.7 µM; in test [7] it was 20.5 µM; in test [2] it was 30.6 µM; in [3], above 100 µM; in test [4], 35.9 µM; in test [8], 29.8 µM. The TGI in [5] was 36 µM; in test [9], 56.7 µM.
As for `C(=C\c1ccncc1)/c1ccncc1`, the GI50 in [1], in [7], in [2], in test [3], in [4] and in test [8] was above 100 µM in each case. In addition, the GI50 in [5] and in test [9] was above 100 µM each time. In addition, the TGI in test [1], in test [7], in [2], in [3], in test [4] and in test [8] was above 100 µM throughout. Besides, the TGI in test [5] and in test [9] was above 100 µM throughout.
For `O=C(N/N=C/c1cc(Cl)ccc1O)c1ccccc1Nc1ccnc(C(F)(F)F)c1`, the GI50 in test [1] is 0.225 µM; in test [7], 0.54 µM; in test [2], 0.27 µM; in test [3], 0.152 µM; in test [4], 1.26 µM; in test [8], 1.01 µM. In addition, the values for the GI50 in test [5] and in test [9] were 0.36 µM and 0.473 µM, respectively. The TGI stood at 0.937 µM in test [1]; 21.1 µM in [7]; 13.1 µM in test [2]; 13.6 µM in [3]; 23.3 µM in [4]; 35.6 µM in [8]. Also, the TGI in [5] turned out to be 13 µM; in test [9] it was 9.03 µM.
With `O=C(N=Nc1c(Cl)c(O)c2ccccc2c1O)C(=O)Nc1cccc(C(F)(F)F)c1`, the GI50 in test [1] is 3.35 µM; in test [7], 1.6 µM; in [2], 1.83 µM; in [3] it was 3.21 µM; in test [4], 3.79 µM; in [8], 3 µM. Further, the GI50 is 10.9 µM in [5] and 3.52 µM in test [9]. Moreover, the TGI stood at 10.2 µM in [1]; 12.9 µM in test [7]; 3.88 µM in test [2]; 12 µM in test [3]; 16.7 µM in test [4]; 16.2 µM in test [8]. Also, the TGI in [5] worked out at 24.6 µM; in [9], 17.7 µM.
